{"source": "PubChem BioAssay (NCI)", "assay_in_all_cases": "NCI anticancer screen, dose series, 48 h", "key": {"LXFL 529 NSCLC": {"test_system": "LXFL 529 NSCLC"}, "786-0 renal": {"test_system": "786-0 renal"}, "K-562 leukemia": {"test_system": "K-562 leukemia"}, "TK-10 renal": {"test_system": "TK-10 renal"}, "SN12C renal": {"test_system": "SN12C renal"}, "MOLT-4 leukemia": {"test_system": "MOLT-4 leukemia"}, "SF-539 CNS": {"test_system": "SF-539 CNS"}, "M14 melanoma": {"test_system": "M14 melanoma"}, "DMS 273 small cell lung": {"test_system": "DMS 273 small cell lung"}, "KM12 colon": {"test_system": "KM12 colon"}, "IGROV1 ovarian": {"test_system": "IGROV1 ovarian"}, "OVCAR-3 ovarian": {"test_system": "OVCAR-3 ovarian"}, "SNB-19 CNS": {"test_system": "SNB-19 CNS"}, "SK-MEL-5 melanoma": {"test_system": "SK-MEL-5 melanoma"}, "RXF 393 renal": {"test_system": "RXF 393 renal"}, "A549 NSCLC": {"test_system": "A549 NSCLC"}, "ACHN renal": {"test_system": "ACHN renal"}, "CAKI-1 renal": {"test_system": "CAKI-1 renal"}, "LOX IMVI melanoma": {"test_system": "LOX IMVI melanoma"}, "M19-MEL melanoma": {"test_system": "M19-MEL melanoma"}, "NCI-H226 lung": {"test_system": "NCI-H226 lung"}, "UACC-62 melanoma": {"test_system": "UACC-62 melanoma"}, "SK-MEL-2 melanoma": {"test_system": "SK-MEL-2 melanoma"}, "RPMI-8226 leukemia": {"test_system": "RPMI-8226 leukemia"}, "HCT-15 colon": {"test_system": "HCT-15 colon"}, "HCT-116 colon": {"test_system": "HCT-116 colon"}, "OVCAR-8 ovarian": {"test_system": "OVCAR-8 ovarian"}, "HCC-2998 colon": {"test_system": "HCC-2998 colon"}, "A498 renal": {"test_system": "A498 renal"}, "SNB-75 CNS": {"test_system": "SNB-75 CNS"}, "MALME-3M melanoma": {"test_system": "MALME-3M melanoma"}, "CCRF-CEM leukemia": {"test_system": "CCRF-CEM leukemia"}, "OVCAR-5 ovarian": {"test_system": "OVCAR-5 ovarian"}, "U251 CNS": {"test_system": "U251 CNS"}, "SF-268 CNS": {"test_system": "SF-268 CNS"}, "NCI-H522 lung": {"test_system": "NCI-H522 lung"}, "SNB-78 CNS": {"test_system": "SNB-78 CNS"}, "NCI-H460 lung": {"test_system": "NCI-H460 lung"}, "DMS 114 small cell lung": {"test_system": "DMS 114 small cell lung"}, "KM20L2 colon": {"test_system": "KM20L2 colon"}, "COLO 205 colon": {"test_system": "COLO 205 colon"}, "HOP-62 NSCLC": {"test_system": "HOP-62 NSCLC"}, "SW-620 colon": {"test_system": "SW-620 colon"}, "DLD-1 colon": {"test_system": "DLD-1 colon"}, "EKVX NSCLC": {"test_system": "EKVX NSCLC"}, "SF-295 CNS": {"test_system": "SF-295 CNS"}, "UO-31 renal": {"test_system": "UO-31 renal"}, "HL-60(TB) leukemia": {"test_system": "HL-60(TB) leukemia"}, "HT29 colon": {"test_system": "HT29 colon"}, "SR leukemia": {"test_system": "SR leukemia"}, "HOP-18 NSCLC": {"test_system": "HOP-18 NSCLC"}}, "note": "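Five compound concentrations were applied to cells in 96-well plates for 48 hours; endpoints were derived by simple linear interpolation of the resulting dose-response curve. TGI marks complete inhibition of growth.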", "data": [{"smiles": "O=S(=O)(OI(OI(OS(=O)(=O)C(F)(F)F)c1ccccc1)c1ccccc1)C(F)(F)F", "values": [{"measurement": "TGI", "setting": "LXFL 529 NSCLC", "value": "> 100", "unit": "µM"}, {"measurement": "TGI", "setting": "786-0 renal", "value": "> 100", "unit": "µM"}, {"measurement": "TGI", "setting": "K-562 leukemia", "value": "> 100", "unit": "µM"}, {"measurement": "TGI", "setting": "TK-10 renal", "value": "> 100", "unit": "µM"}, {"measurement": "TGI", "setting": "SN12C renal", "value": "> 100", "unit": "µM"}, {"measurement": "TGI", "setting": "MOLT-4 leukemia", "value": "> 100", "unit": "µM"}, {"measurement": "TGI", "setting": "SF-539 CNS", "value": "> 100", "unit": "µM"}, {"measurement": "TGI", "setting": "M14 melanoma", "value": "> 100", "unit": "µM"}, {"measurement": "TGI", "setting": "DMS 273 small cell lung", "value": "> 100", "unit": "µM"}, {"measurement": "TGI", "setting": "KM12 colon", "value": "> 100", "unit": "µM"}, {"measurement": "TGI", "setting": "IGROV1 ovarian", "value": "> 100", "unit": "µM"}, {"measurement": "TGI", "setting": "OVCAR-3 ovarian", "value": "> 100", "unit": "µM"}, {"measurement": "TGI", "setting": "SNB-19 CNS", "value": "> 100", "unit": "µM"}, {"measurement": "TGI", "setting": "SK-MEL-5 melanoma", "value": 85.4, "unit": "µM"}, {"measurement": "TGI", "setting": "RXF 393 renal", "value": 73.7, "unit": "µM"}, {"measurement": "TGI", "setting": "A549 NSCLC", "value": "> 100", "unit": "µM"}, {"measurement": "TGI", "setting": "ACHN renal", "value": "> 100", "unit": "µM"}, {"measurement": "TGI", "setting": "CAKI-1 renal", "value": "> 100", "unit": "µM"}, {"measurement": "TGI", "setting": "LOX IMVI melanoma", "value": "> 100", "unit": "µM"}, {"measurement": "TGI", "setting": "M19-MEL melanoma", "value": "> 100", "unit": "µM"}, {"measurement": "TGI", "setting": "NCI-H226 lung", "value": "> 100", "unit": "µM"}, {"measurement": "TGI", "setting": "UACC-62 melanoma", "value": "> 100", "unit": "µM"}, {"measurement": "TGI", "setting": "SK-MEL-2 melanoma", "value": "> 100", "unit": "µM"}, {"measurement": "TGI", "setting": "RPMI-8226 leukemia", "value": "> 100", "unit": "µM"}, {"measurement": "TGI", "setting": "HCT-15 colon", "value": "> 100", "unit": "µM"}, {"measurement": "TGI", "setting": "HCT-116 colon", "value": "> 100", "unit": "µM"}, {"measurement": "TGI", "setting": "OVCAR-8 ovarian", "value": "> 100", "unit": "µM"}, {"measurement": "TGI", "setting": "HCC-2998 colon", "value": "> 100", "unit": "µM"}, {"measurement": "TGI", "setting": "A498 renal", "value": "> 100", "unit": "µM"}, {"measurement": "TGI", "setting": "SNB-75 CNS", "value": "> 100", "unit": "µM"}, {"measurement": "TGI", "setting": "MALME-3M melanoma", "value": "> 100", "unit": "µM"}, {"measurement": "TGI", "setting": "CCRF-CEM leukemia", "value": 91.1, "unit": "µM"}, {"measurement": "TGI", "setting": "OVCAR-5 ovarian", "value": "> 100", "unit": "µM"}, {"measurement": "TGI", "setting": "U251 CNS", "value": "> 100", "unit": "µM"}, {"measurement": "TGI", "setting": "SF-268 CNS", "value": "> 100", "unit": "µM"}, {"measurement": "TGI", "setting": "NCI-H522 lung", "value": "> 100", "unit": "µM"}, {"measurement": "TGI", "setting": "SNB-78 CNS", "value": "> 100", "unit": "µM"}, {"measurement": "TGI", "setting": "NCI-H460 lung", "value": "> 100", "unit": "µM"}, {"measurement": "TGI", "setting": "DMS 114 small cell lung", "value": 55, "unit": "µM"}, {"measurement": "TGI", "setting": "KM20L2 colon", "value": "> 100", "unit": "µM"}, {"measurement": "TGI", "setting": "COLO 205 colon", "value": "> 100", "unit": "µM"}, {"measurement": "TGI", "setting": "HOP-62 NSCLC", "value": "> 100", "unit": "µM"}, {"measurement": "TGI", "setting": "SW-620 colon", "value": "> 100", "unit": "µM"}, {"measurement": "TGI", "setting": "DLD-1 colon", "value": "> 100", "unit": "µM"}, {"measurement": "TGI", "setting": "EKVX NSCLC", "value": "> 100", "unit": "µM"}, {"measurement": "TGI", "setting": "SF-295 CNS", "value": "> 100", "unit": "µM"}, {"measurement": "TGI", "setting": "UO-31 renal", "value": "> 100", "unit": "µM"}, {"measurement": "TGI", "setting": "HL-60(TB) leukemia", "value": 36.5, "unit": "µM"}]}, {"smiles": "CCCC(=O)OC[n+]1ccc2c(C)c3[nH]c4ccccc4c3c(C)c2c1", "values": [{"measurement": "TGI", "setting": "K-562 leukemia", "value": "> 100", "unit": "µM"}, {"measurement": "TGI", "setting": "TK-10 renal", "value": 5.5, "unit": "µM"}, {"measurement": "TGI", "setting": "MOLT-4 leukemia", "value": 3.04, "unit": "µM"}, {"measurement": "TGI", "setting": "KM12 colon", "value": 1.8, "unit": "µM"}, {"measurement": "TGI", "setting": "HT29 colon", "value": "> 100", "unit": "µM"}, {"measurement": "TGI", "setting": "M19-MEL melanoma", "value": "> 100", "unit": "µM"}, {"measurement": "TGI", "setting": "SR leukemia", "value": 17.5, "unit": "µM"}, {"measurement": "TGI", "setting": "SNB-75 CNS", "value": "> 100", "unit": "µM"}, {"measurement": "TGI", "setting": "CCRF-CEM leukemia", "value": "> 100", "unit": "µM"}, {"measurement": "TGI", "setting": "OVCAR-5 ovarian", "value": 2.34, "unit": "µM"}, {"measurement": "TGI", "setting": "HOP-18 NSCLC", "value": 2.99, "unit": "µM"}, {"measurement": "TGI", "setting": "UO-31 renal", "value": 5.59, "unit": "µM"}, {"measurement": "TGI", "setting": "HL-60(TB) leukemia", "value": "> 100", "unit": "µM"}]}]}
